Target: Nurr1 receptor (Homo sapiens, UniProt P43354)
Assay: Transactivation of a Nurr1 responsive reporter gene in a midbrain dopaminergic cell line
Format: cell-based
Conditions: read-out: EC50 of increase of reporter gene activity
From the text: The activity of the agents of the invention at the Nurr1 receptor can be determined in vitro in cellular assays:
Induction of the biological activity of the Nurr1 receptor by the agents of the invention can be measured by the transactivation of a Nurr1 responsive reporter gene in a midbrain dopaminergic cell line. The assay is based on the transcription promoting effect of Nurr1. The reporter gene can be activated both by Nurr1 monomers and Nurr1/RXR heterodimers. RXR is a frequent heterodimerisation partner of nuclear receptors and it has been shown that Nurr1 can form heterodimers with RXR (Zetterström RH et al. Mol. Endocrinol. 1996; 10:1656–1666).

Chain of Nurr1 receptor (P43354 whole entry): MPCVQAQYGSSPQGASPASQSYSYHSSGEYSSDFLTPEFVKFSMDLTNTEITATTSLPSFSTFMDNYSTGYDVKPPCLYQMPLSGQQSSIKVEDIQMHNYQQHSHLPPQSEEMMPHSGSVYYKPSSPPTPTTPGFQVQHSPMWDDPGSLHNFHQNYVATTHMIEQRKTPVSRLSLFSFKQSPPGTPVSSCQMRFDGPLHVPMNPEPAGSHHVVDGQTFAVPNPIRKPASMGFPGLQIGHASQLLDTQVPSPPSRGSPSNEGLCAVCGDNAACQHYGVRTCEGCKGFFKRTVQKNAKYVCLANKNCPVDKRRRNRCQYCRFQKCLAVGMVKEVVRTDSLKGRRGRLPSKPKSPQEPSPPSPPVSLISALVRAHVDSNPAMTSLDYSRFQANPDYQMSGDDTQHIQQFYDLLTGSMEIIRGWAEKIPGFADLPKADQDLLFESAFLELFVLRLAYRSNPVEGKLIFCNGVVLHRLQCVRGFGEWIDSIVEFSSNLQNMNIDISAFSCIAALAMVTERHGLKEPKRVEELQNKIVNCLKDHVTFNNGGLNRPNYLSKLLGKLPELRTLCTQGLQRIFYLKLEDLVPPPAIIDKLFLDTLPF

Row | Compound | EC50
1 | COCCOCc1ccc(-c2cc3onc(-c4ccccc4)c3c(=O)n2C)cc1 [Example 7, 6-[4-(2-Methoxy-ethoxymethyl)-phenyl]-5-methyl-3-phenyl-5H-isoxazolo[4,5-c]pyridin-4-one] | 40 nM
2 | CN(C)Cc1ccc(-c2cc3onc(-c4ccccc4)c3c(=O)[nH]2)cc1 [Example 11, 6-(4-Dimethylaminomethyl-phenyl)-3-phenyl-5H-isoxazolo[4,5-c]pyridin-4-one] | 70 nM

— patent US7087756B2, “Isoxazolopyridinones” (Novartis AG, priority 2001, dated 2006)
